Entries after “also recorded” stand apart in the source; their conditions may differ. *1 amine or outer side, *2 acyl side, *3 side chain or, on linkers, in order; H or OH if unused. Where a SMILES comes first, the peptide text is derived from it. [ ]: non-standard residue; d: D form. X2 = CC[C@H](C)C[C@H](C)C[C@H](C)C[C@H](N[*:1])C(=O)[*:2]; X1 = CC[C@@H](C)[C@@H](O[*:1])C(=O)[*:2]; NMeVal(β-OH) = CN[C@H](C(=O)O)C(C)(C)O; aIle = CC[C@@H](C)[C@H](N)C(=O)O; NMeV = CN[C@H](C(=O)O)C(C)C; Sar = CNCC(=O)O
Tested on: C. albicans SC5314 Flu^R
Assay: Ex vivo model of fungal keratitis (porcine cornea)
Design: species or system Candida albicans

SMILES | antifungal activity (fungal growth/infection), in words
CC[C@H](C)C[C@H](C)C[C@H](C)C[C@@H]1NC(=O)[C@H](C(C)C)N(C)C(=O)[C@@H]([C@H](C)CC)OC(=O)[C@H](C(C)(C)O)N(C)C(=O)[C@H](CC(C)C)NC(=O)[C@H](C(C)C)N(C)C(=O)[C@H]([C@H](C)CC)NC(=O)[C@@H]2CCCN2C(=O)CN(C)C1=O [Compound 1, persephacin] (cyclo(L[NMeVal(β-OH)][X1][NMeV][X2][Sar]P[aIle][NMeV])) | inhibited the growth; also recorded: eliminated the fungus
C[C@@H]1C/C=C/C=C/C=C/C=C/[C@H](O[C@@H]2O[C@H](C)[C@@H](O)[C@H](N)[C@@H]2O)C[C@@H]2O[C@](O)(C[C@@H](O)C[C@H]3O[C@@H]3/C=C/C(=O)O1)C[C@H](O)[C@H]2C(=O)O [Natamycin, natamycin] | inhibited the growth; also recorded: reduced the fungal burden
OC(Cn1cncn1)(Cn1cncn1)c1ccc(F)cc1F [Fluconazole, fluconazole] | did not inhibit the growth; also recorded: unable to inhibit the fungus
